Key:
Type in all cases: cell-based
M3 muscarinic receptor = target: T1, M3 muscarinic receptor (Homo sapiens, UniProt P20309); assay: Functional mobilization of intracellular calcium (FLIPR), M3-CHO cells; settings: for Emax: 100% efficacy = maximum response obtained with the Carbachol control; for EC50: CHO cells expressing M3, calcium mobilization
T1 construct: expressed in transfected cells; host or cells: CHO (M3-CHO)
Procedure: (§1) Functional Mobilization of Intracellular Calcium to Determine Muscarinic Receptor Activity:
(§2) CHO cells expressing muscarinic receptors (M1 to M5) are grown as monolayers in tissue culture flasks at 37° C. in a humidified atmosphere containing 5% CO2 and passaged every 3-5 days. The growth media is Dulbecco's modified eagles medium (DMEM, Gibco Cat# 12430-054), containing 25 mM Hepes and supplemented with Fetal Bovine Serum (Hyclone, cat #SH30071.03), 0.1 mM of MEM non-essential amino acids (GIBCO, Cat #11140-050), 1 mM MEM Sodium Pyruvate (GIBCO Cat #11360-070) and 100 units/ml of Penicillin G and 100 μg/ml of Streptomycin (GIBCO Cat #15140-122). The recombinant muscarinic receptor cell lines are grown under antibiotic pressure with media containing 25 μg/ml zeocin and 500 μg/ml G418 (M1-CHO), 4 μg/ml puromycin, 50 μg/ml zeocin and 2.5 μg/ml blasticidin (M2 and M4-CHO) or 50 μg/ml zeocin and 4 μg/ml puromycin (M3 and M5-CHO).
(§3) Cells are harvested at 80-90% confluence using Versene (GIBCO Cat #15040-066), collected by centrifugation and seeded 18-24 hrs prior to running the calcium assay at a density of 5,000-10,000 cells/well in […], clear-bottomed 384-well plates (BD Biocoat, poly-D-lysine, Cat#356663). The day of the experiment, the cells are washed with a plate washer (Bioteck Instruments, ELX 405) using bath1 buffer (140-mM NaCl, 4.5-mM KCl, 2-mM CaCl2, 1-mM MgCl2, 10-mM Hepes-Na, 10-mM Glucose, pH 7.4, with NaOH) containing 1 mM Probenecid. Next, the calcium dye Fluo-3 (25 μl/well of Fluo-3 AM at 4 μM, Molecular Probes F-1241, in Bath 1 buffer containing 1 mM Probenecid) is added to the 25 μl of Bath 1 remaining in each well after the plate wash and the dye is loaded at 37° C. in the tissue culture incubator for 60-90 min. The fluorescent dye is removed using the plate washer with Bath 1 containing 1 mM Probenecid, leaving 25 μl/well of this solution after the wash. Alternatively, cells can be loaded with the calcium indicator from Molecular Devices (Calcium 3 Assay Reagents, Cat #R7181) adding 5 μl of a 5× solution dye in Bath 1 containing 1 mM Probenecid (10 ml per dye flask cat #R7182 to generate a solution 20×) to 20 μl of the same buffer. After loading for 60 min, the experiment can be run without having to remove the dye.
(§4) Compounds are prepared at a 2× fold concentration in a 96-well plate (round bottom, Costar Corning cat #3656), by reconstituting the pre-spotted compounds in bath 1 containing 1 mM probenecid. The final concentration DMSO is 0.5%, and the amount of DMSO is normalized across the assay plate. To determine an agonist action of the compounds on muscarinic receptors, the reconstituted compounds are added (25 μl compound/well) to the cell assay plate (containing 25 μl/well) using the multi-channel robotic system of the FLIPR 3 Instrument (Molecular Devices, Sunnyvale, Calif.). To determine a functional inhibitory action of the compounds on muscarinic receptors, the reconstituted compounds are added (25 μl compound/well) to the assay plate and pre-incubated for 15 min prior to adding 25 μl of Carbachol at 3× the EC80 for each muscarinic subtype. Alternatively, the compounds can be co-applied simultaneously with the agonist. In both assay modes, the fluorescence is recorded for 60 sec (excitation wavelength is […] and emission wavelength 540 nm) using the FLIPR 3 instrument.
(§5) The potency, efficacy and selectivity of the muscarinic compounds were evaluated by screening the compound activity across the whole family (M1 to M5 cells). Compounds were also screened for activity on other proteins such as other GPCRs and ion channels to determine selectivity on M4 receptors.
(§6) Examples of activities and efficacies of the muscarinic compounds of formulae (I, Ia, and Ib) on modulating M1 and M4 receptors are shown below in Table 3. […]

M1 muscarinic receptor = target: T2, M1 muscarinic receptor (Homo sapiens, UniProt P11229); assay: Functional mobilization of intracellular calcium (FLIPR), M1-CHO cells; settings: for Emax: 100% efficacy = maximum response obtained with the Carbachol control; for EC50: CHO cells expressing M1, calcium mobilization
T2 construct: expressed in transfected cells; host or cells: CHO (M1-CHO)
T2 sequence (P11229 1-460): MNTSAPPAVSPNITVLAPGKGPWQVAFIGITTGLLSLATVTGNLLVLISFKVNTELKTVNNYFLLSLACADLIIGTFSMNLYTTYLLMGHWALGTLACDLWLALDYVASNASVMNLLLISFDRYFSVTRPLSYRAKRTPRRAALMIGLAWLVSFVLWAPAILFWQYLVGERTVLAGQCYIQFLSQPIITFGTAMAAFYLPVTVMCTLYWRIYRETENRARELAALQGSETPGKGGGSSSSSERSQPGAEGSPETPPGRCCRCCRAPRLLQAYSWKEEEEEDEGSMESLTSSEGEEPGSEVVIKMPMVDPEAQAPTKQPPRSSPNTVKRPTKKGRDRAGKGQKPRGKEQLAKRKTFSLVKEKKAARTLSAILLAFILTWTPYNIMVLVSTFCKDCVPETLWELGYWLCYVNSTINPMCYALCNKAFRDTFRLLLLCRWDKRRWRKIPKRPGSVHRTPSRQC
Procedure: as §1, §2, §3, §4, §5, §6

M4 muscarinic receptor = target: T3, M4 muscarinic receptor (Homo sapiens, UniProt P08173); assay: Functional mobilization of intracellular calcium (FLIPR), M4-CHO cells; settings: for Emax: 100% efficacy = maximum response obtained with the Carbachol control; for EC50: CHO cells expressing M4, calcium mobilization
T3 construct: expressed in transfected cells; host or cells: CHO (M4-CHO)
T3 sequence (P08173 1-479): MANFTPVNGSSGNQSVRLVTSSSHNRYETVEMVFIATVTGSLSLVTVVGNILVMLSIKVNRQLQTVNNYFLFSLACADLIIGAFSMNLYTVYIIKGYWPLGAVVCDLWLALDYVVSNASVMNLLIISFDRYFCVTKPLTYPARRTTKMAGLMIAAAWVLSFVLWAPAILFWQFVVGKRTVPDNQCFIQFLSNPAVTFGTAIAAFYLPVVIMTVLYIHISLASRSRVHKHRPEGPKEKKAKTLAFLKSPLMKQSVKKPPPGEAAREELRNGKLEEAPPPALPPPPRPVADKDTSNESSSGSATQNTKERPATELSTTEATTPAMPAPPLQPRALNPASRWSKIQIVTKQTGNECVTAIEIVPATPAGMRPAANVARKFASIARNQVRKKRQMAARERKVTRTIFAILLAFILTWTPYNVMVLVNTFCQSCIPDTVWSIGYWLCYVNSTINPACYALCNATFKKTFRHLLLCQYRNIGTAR
Procedure: as §1, §2, §3, §4, §5, §6

M2 muscarinic receptor = target: T4, M2 muscarinic receptor (Homo sapiens, UniProt P08172); assay: Functional mobilization of intracellular calcium (FLIPR), M2-CHO cells; settings: for Emax: 100% efficacy = maximum response obtained with the Carbachol control; for EC50: CHO cells expressing M2, calcium mobilization
T4 construct: expressed in transfected cells; host or cells: CHO (M2-CHO)
T4 sequence (P08172 1-466): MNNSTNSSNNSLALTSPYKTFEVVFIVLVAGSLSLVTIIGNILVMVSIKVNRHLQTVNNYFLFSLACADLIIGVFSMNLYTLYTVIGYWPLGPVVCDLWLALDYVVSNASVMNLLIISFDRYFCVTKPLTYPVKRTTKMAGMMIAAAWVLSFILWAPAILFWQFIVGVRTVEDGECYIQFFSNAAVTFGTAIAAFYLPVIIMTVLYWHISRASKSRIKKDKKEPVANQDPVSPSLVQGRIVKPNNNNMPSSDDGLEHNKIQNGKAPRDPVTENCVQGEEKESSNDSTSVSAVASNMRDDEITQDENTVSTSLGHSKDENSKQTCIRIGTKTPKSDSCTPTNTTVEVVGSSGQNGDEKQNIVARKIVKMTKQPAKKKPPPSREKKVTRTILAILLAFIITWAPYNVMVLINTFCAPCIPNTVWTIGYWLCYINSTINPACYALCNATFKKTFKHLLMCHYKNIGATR
Procedure: as §1, §2, §3, §4, §5, §6

T1 sequence (P20309 whole entry): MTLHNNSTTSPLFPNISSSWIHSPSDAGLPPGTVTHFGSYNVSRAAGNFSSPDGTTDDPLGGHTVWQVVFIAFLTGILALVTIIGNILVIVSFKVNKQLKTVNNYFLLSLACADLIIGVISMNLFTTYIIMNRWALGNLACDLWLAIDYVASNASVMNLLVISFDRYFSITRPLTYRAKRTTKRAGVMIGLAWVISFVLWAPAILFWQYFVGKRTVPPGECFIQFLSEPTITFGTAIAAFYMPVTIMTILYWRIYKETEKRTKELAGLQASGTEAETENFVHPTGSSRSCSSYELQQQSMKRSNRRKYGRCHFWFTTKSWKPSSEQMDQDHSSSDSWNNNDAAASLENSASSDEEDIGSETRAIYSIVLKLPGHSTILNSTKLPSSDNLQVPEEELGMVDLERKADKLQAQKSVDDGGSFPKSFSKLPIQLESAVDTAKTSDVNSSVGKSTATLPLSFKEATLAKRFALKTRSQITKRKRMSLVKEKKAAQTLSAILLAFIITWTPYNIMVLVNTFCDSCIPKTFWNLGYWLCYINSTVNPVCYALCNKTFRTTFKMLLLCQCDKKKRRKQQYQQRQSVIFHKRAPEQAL

| SMILES | Emax (M3 muscarinic receptor) [%] | EC50 (M3 muscarinic receptor) [µM] | Emax (M1 muscarinic receptor) [%] | EC50 (M1 muscarinic receptor) [µM] | Emax (M4 muscarinic receptor) [%] | EC50 (M4 muscarinic receptor) [µM] | Emax (M2 muscarinic receptor) [%] | EC50 (M2 muscarinic receptor) [µM] |
| --- | --- | --- | --- | --- | --- | --- | --- | --- |
| CC(=O)N1CC[C@@H]2CC3(CCN(C4CCCCC4)CC3)c3ccccc3[C@@H]21 [Compound 27] | < 25 | > 5 | < 25 | > 5 | < 25 | > 5 | < 25 | > 5 |
| O=C1CC2CC3(CCN(CC4CCCCC4)CC3)c3ccccc3C2O1 (stereo not drawn) [Compound 18] | < 25 | > 5 | 25 to 100 | < 2 | 25 to 100 | < 2 | 25 to 100 | > 5 |
| CN1C(=O)C[C@@H]2CC3(CCN(C4CCCCCC4)CC3)c3ccccc3[C@@H]21 [Compound 10] | < 25 | > 5 | 25 to 100 | 2 to 5 | 25 to 100 | < 2 | 25 to 100 | > 5 |
